The series can be described thus: molar enthalpy of vaporization or sublimation. The settings on record: 298 K; Crystal; Static calorimetry.

In the NIST ThermoML archive (doi:10.1016/j.jct.2007.11.008) one finds molar enthalpy data, which are given here for two compounds.

Numbers after ± are expanded uncertainties.

Regarding `CCCCN(CCCC)C(=S)NC(=O)c1cccs1` [N-((dibutylamino)thioxomethyl)-2-thiophenecarboxamide], the molar enthalpy was found to be 48.92 ± 0.263 kcal/mol. Under `CC(C)CN(CC(C)C)C(=S)NC(=O)c1cccs1` stands 48.57 ± 0.263 kcal/mol.
